Results as given in ChEMBL document CHEMBL5154881, “Discovery of First-in-Class TAK1-MKK3 Protein-Protein Interaction (PPI) Inhibitor (R)-STU104 for the Treatment of Ulcerative Colitis through Modulating TNF-α Production” (J Med Chem, 2022).
One block for each compound: values may come before it. Activity calls are given as the source filed them. The rule behind the calls is not given here.

Columns and labels:
[1] = system: RAW264.7; assay: Inhibition of LPS-induced TNFalpha production in mouse RAW264.7 cells at 50 uM preincubated for 2 hrs followed by LPS treatment for 24 hrs by RT-qPCR analysis relative to control; assay type: functional; conditions: time 26 hrs
[2] = system: RAW264.7; assay: Inhibition of LPS-induced TNFalpha production in mouse RAW264.7 cells preincubated for 2 hrs followed by LPS treatment for 24 hrs by RT-qPCR analysis; assay type: functional, cell-based
[3] = system: Peritoneal macrophage; assay: Inhibition of LPS-induced TNFalpha production in mouse peritoneal macrophage at 2.6 uM incubated overnight by immunoassay relative to control; assay type: functional
[4] = system: Mus musculus; assay: Anti-ulcerative colitis activity against DSS-induced ulcerative colitis C57BL/6 mouse model assessed as body weight recovery rate at 50 mg/kg, IG via gavage administered for 7 days and measured everyday relative to control; assay type: functional; conditions: time 7 day
[5] = system: Mus musculus; assay: Anti-ulcerative colitis activity in DSS-induced C57BL/6 mouse ulcerative colitis model assessed as colon length recovery ratio at 50 mg/kg, IG via gavage measured after 7 days relative to control; assay type: functional; conditions: time 7 day
[6] = system: Mus musculus; assay: Anti-ulcerative colitis activity in DSS-induced C57BL/6 mouse ulcerative colitis model assessed as histopathological score recovery ratio at 50 mg/kg, IG via gavage measured after 7 days by H and E staining method relative to control; assay type: functional; conditions: time 7 day
[7] = system: Mus musculus; assay: Antiinflammatory activity against DSS-induced C57BL/6 mouse model of acute ulcerative colitis assessed as inhibition ratio of TNF-alpha protein expression at 50 mg/kg, IG via gavage measured after 7 days by ELISA relative to control; assay type: functional; set-up: scale not given: the % may be the effect or the level left; conditions: time 7 day
[8] = system: Mus musculus; assay: Antiinflammatory activity against DSS-induced C57BL/6 mouse model of acute ulcerative colitis assessed as inhibition ratio of IL-1beta protein expression at 50 mg/kg, IG via gavage measured after 7 days by ELISA relative to control; assay type: functional; set-up: scale not given: the % may be the effect or the level left; conditions: time 7 day
[9] = system: Mus musculus; assay: Antiinflammatory activity against DSS-induced C57BL/6 mouse model of acute ulcerative colitis assessed as inhibition ratio of IL-6 protein expression at 50 mg/kg, IG via gavage measured after 7 days by ELISA relative to control; assay type: functional; set-up: scale not given: the % may be the effect or the level left; conditions: time 7 day
[10] = system: Mus musculus; assay: Antiinflammatory activity against DSS-induced C57BL/6 mouse model of acute ulcerative colitis assessed as inhibition ratio of IL-23 protein expression at 50 mg/kg, IG via gavage measured after 7 days by ELISA relative to control; assay type: functional; set-up: scale not given: the % may be the effect or the level left; conditions: time 7 day
[11] = system: Mus musculus; assay: Antiinflammatory activity against DSS-induced C57BL/6 mouse model of acute ulcerative colitis assessed as inhibition ratio of IL-6 mRNA expression in colon tissue at 50 mg/kg, IG via gavage measured after 7 days by RT-qPCR analysis relative to control; assay type: functional; set-up: scale not given: the % may be the effect or the level left; conditions: time 7 day
[12] = system: Mus musculus; assay: Antiinflammatory activity against DSS-induced C57BL/6 mouse model of acute ulcerative colitis assessed as inhibition ratio of TNF-alpha mRNA expression in colon tissue at 50 mg/kg, IG via gavage measured after 7 days by RT-qPCR analysis relative to control; assay type: functional; set-up: scale not given: the % may be the effect or the level left; conditions: time 7 day
[13] = system: Mus musculus; assay: Anti-ulcerative colitis activity in IL-10-/- C57BL/6 mouse model of ulcerative colitis assessed as colon length recovery ratio at 50 mg/kg, IG via gavage for 8 weeks relative to control; assay type: functional
[14] = system: Mus musculus; assay: Anti-ulcerative colitis activity in IL-10-/- C57BL/6 mouse model of ulcerative colitis assessed as histopathological score recovery ratio at 50 mg/kg, IG via gavage for 8 weeks relative to control; assay type: functional
[15] = system: Mus musculus; assay: Antiinflammatory activity against IL-10-/- C57BL/6 mouse model of ulcerative colitis assessed as inhibition ratio of TNF-alpha protein expression at 50 mg/kg, IG via gavage and measured after 8 weeks by ELISA relative to control; assay type: functional; set-up: scale not given: the % may be the effect or the level left
[16] = system: Mus musculus; assay: Antiinflammatory activity against IL-10-/- C57BL/6 mouse model of ulcerative colitis assessed as inhibition ratio of IL-1beta protein expression at 50 mg/kg, IG via gavage and measured after 8 weeks by ELISA relative to control; assay type: functional; set-up: scale not given: the % may be the effect or the level left
[17] = system: Mus musculus; assay: Antiinflammatory activity against IL-10-/- C57BL/6 mouse model of ulcerative colitis assessed as inhibition ratio of IL-6 protein expression at 50 mg/kg, IG via gavage and measured after 8 weeks by ELISA relative to control; assay type: functional; set-up: scale not given: the % may be the effect or the level left
[18] = system: Mus musculus; assay: Antiinflammatory activity against IL-10-/- C57BL/6 mouse model of ulcerative colitis assessed as inhibition ratio of IL-23 protein expression at 50 mg/kg, IG via gavage and measured after 8 weeks by ELISA relative to control; assay type: functional; set-up: scale not given: the % may be the effect or the level left
[19] = system: Mus musculus; assay: Antiinflammatory activity against IL-10-/- C57BL/6 mouse model of ulcerative colitis assessed as inhibition ratio of TNF-alpha mRNA expression in colon tissue at 50 mg/kg, IG via gavage and measured after 8 weeks by RT-qPCR analysis relative to control; assay type: functional; set-up: scale not given: the % may be the effect or the level left
[20] = system: Mus musculus; assay: Antiinflammatory activity against IL-10-/- C57BL/6 mouse model of ulcerative colitis assessed as inhibition ratio of IL-1beta mRNA expression in colon tissue at 50 mg/kg, IG via gavage and measured after 8 weeks by RT-qPCR analysis relative to control; assay type: functional; set-up: scale not given: the % may be the effect or the level left
[21] = system: Mus musculus; assay: Antiinflammatory activity against IL-10-/- C57BL/6 mouse model of ulcerative colitis assessed as inhibition ratio of IL-6 mRNA expression in colon tissue at 50 mg/kg, IG via gavage and measured after 8 weeks by RT-qPCR analysis relative to control; assay type: functional; set-up: scale not given: the % may be the effect or the level left
[22] = system: Mus musculus; assay: Antiinflammatory activity against IL-10-/- C57BL/6 mouse model of ulcerative colitis assessed as inhibition ratio of IL-23 mRNA expression in colon tissue at 50 mg/kg, IG via gavage and measured after 8 weeks by RT-qPCR analysis relative to control; assay type: functional; set-up: scale not given: the % may be the effect or the level left
[23] = system: Mus musculus; assay: Anti-ulcerative colitis activity against DSS-induced ulcerative colitis C57BL/6 mouse model assessed as reduction in DAI score at 50 mg/kg, IG via gavage administered for 7 days and measured everyday (reference value: 4.0); assay type: functional; conditions: time 7 day
[24] = system: Mus musculus; assay: Anti-ulcerative colitis activity against DSS-induced ulcerative colitis C57BL/6 mouse model assessed as reduction in DAI recovery score ratio at 50 mg/kg, IG via gavage administered for 7 days and measured everyday relative to control; assay type: functional; set-up: scale not given: the % may be the effect or the level left; conditions: time 7 day
[25] = system: Mus musculus; assay: Antiinflammatory activity against DSS-induced C57BL/6 mouse model of acute ulcerative colitis assessed as inhibition of IL-23 mRNA expression in colon tissue administered intragastrically via gavage measured after 7 days by RT-qPCR analysis; assay type: functional, organism-based; conditions: route ig, time 7.0 day, DDE = dose-dependent effect
[26] = system: Mus musculus; assay: Anti-ulcerative colitis activity in IL-10-/- C57BL/6 mouse ulcerative colitis model assessed as animal survival at 50 mg/kg, IG via gavage for 8 weeks; assay type: functional, organism-based

IC50 [2]: 51.5 µM
SMILES: COc1cc(OC)c2c(c1)C(=O)CC2c1ccc2cc(OC)ccc2c1 (stereo not given)
inhibition at 50 µM [1]: 4.6%

SMILES: COc1cc(OC)c2c(c1)C(=O)CC2c1ccc(OC(F)(F)F)cc1 (stereo not given)
inhibition at 50 µM [1]: 4.4%

IC50 [2]: 43.6 µM
SMILES: Cc1ccc(C2CC(=O)c3cc4c(cc32)OCO4)cc1 (stereo not given)
inhibition at 50 µM [1]: 66.2%

SMILES: O=C1CC(c2ccc(F)cc2)c2cc3c(cc21)OCO3 (stereo not given)
inhibition at 50 µM [1]: 5.3%

SMILES: COc1cc2c(cc1OC)C(c1ccc(F)cc1)CC2=O (stereo not given)
inhibition at 50 µM [1]: 80%

SMILES: COc1cc(C2CC(=O)c3cc(OC)c(OC)c(OC)c32)cc(OC)c1OC (stereo not given)
inhibition at 2.6 µM [3]: 55%

SMILES: COc1cc(OC)c2c(c1)C(=O)CC2c1ccc(Cl)cc1 (stereo not given)
inhibition at 50 µM [1]: -98.9%

SMILES: COc1cc(OC)c2c(c1)C(=O)CC2c1ccc(Br)cc1 (stereo not given)
inhibition at 50 µM [1]: -88.5%

IC50 [2]: 1.26 µM
SMILES: COc1ccc(C2CC(=O)c3cc(OC)cc(OC)c32)cc1 (stereo not given)
inhibition at 50 µM [1]: 82.6%

IC50 [2]: 3.92 µM
SMILES: COc1cc(OC)c2c(c1)C(=O)CC2c1ccc(SC)cc1 (stereo not given)
inhibition at 50 µM [1]: 79.8%

SMILES: COc1cc(OC)c2c(c1)C(=O)CC2c1cccs1 (stereo not given)
inhibition at 50 µM [1]: 5.6%

IC50 [2]: > 50 µM
SMILES: COc1ccc([C@@H]2CC(=O)c3cc(OC)cc(OC)c32)cc1

IC50 [2]: 48.3 µM
SMILES: COc1cc(OC)c2c(c1)C(=O)CC2c1ccc(C)cc1 (stereo not given)
inhibition at 50 µM [1]: 49.9%

IC50 [2]: 3.52 µM
SMILES: COc1cc(OC)cc(C2CC(=O)c3cc(OC)ccc32)c1 (stereo not given)
inhibition at 50 µM [1]: 0.2%

IC50 [2]: 4 µM
SMILES: COc1cc(OC)c2c(c1)C(=O)CC2c1ccccc1C (stereo not given)
inhibition at 50 µM [1]: 77.6%

SMILES: COc1cc(OC)c2c(c1)C(=O)CC2c1ccc2c(c1)OCO2 (stereo not given)
inhibition at 50 µM [1]: 15.5%

IC50 [2]: 4.51 µM
SMILES: COc1cc(OC)c2c(c1)C(=O)CC2c1ccc(OC(C)(F)F)cc1 (stereo not given)
inhibition at 50 µM [1]: 76.5%

SMILES: COc1cc(OC)c2c(c1)C(=O)CC2c1csc2ccccc12 (stereo not given)
inhibition at 50 µM [1]: 5.9%

SMILES: COc1cc(OC)c2c(c1)C(=O)CC2c1ccc(F)cc1 (stereo not given)
inhibition at 50 µM [1]: -4.2%

IC50 [2]: 46 µM
SMILES: COc1ccc(C2c3c(OC)cc(OC)cc3C(=O)C2c2cc(OC)cc(OC)c2)cc1 (stereo not given)
inhibition at 50 µM [1]: 62.3%

IC50 [2]: 47.3 µM
SMILES: COc1cc2c(cc1OC)C(c1ccc(C)cc1)CC2=O (stereo not given)
inhibition at 50 µM [1]: 55.2%

SMILES: COc1ccc2c(c1)C(=O)CC2c1ccc(F)cc1 (stereo not given)
inhibition at 50 µM [1]: 6.5%

SMILES: Nc1ccc(O)c(C(=O)O)c1 [MESALAMINE]
Activity [4]: 38.3% | Activity [5]: 39.4% | Activity [6]: 38.3% | Activity [7]: 43.2% | Activity [8]: 47.3% | Activity [9]: 53.5% | Activity [10]: 27.5% | Activity [11]: 46% | Activity [12]: 48.7% | Activity [13]: 32.4% | Activity [14]: 44.3% | Activity [15]: 42.2% | Activity [16]: 44% | Activity [17]: 54.9% | Activity [18]: 55.7% | Activity [19]: 30.1% | Activity [20]: 36.9% | Activity [21]: 46.3% | Activity [22]: 54.7% | Activity [23]: 3 | Activity [24]: 25% | Activity [25]: Dde | Activity [26]: Active
